Measured values as given in patent US7276576B1, “Mammalian ICYP (iodocyanopindolol) receptor and its applications” (Dainippon Sumitomo Pharma Co., Ltd., priority 1996, dated 2007).
Where two headings read alike, the source gives them in different places.

What was measured:
[1] = tested on: guinea pig eosinophil; experiment: Leukotriene B4 induced guinea pig eosinophil chemotaxis; assay type: cell-based; settings: for Effect of antagonist on the inhibition of eosinophil chemotaxis: inhibition by SM-11044 and BRL-35135A
[2] = target: T1, [125I]-ICYP specific binding site (SMBP, SM-11044 binding protein) in rat colon smooth muscle membranes (Rattus norvegicus, UniProt A0A8I6A822); experiment: [125I]-ICYP saturation and competition binding to rat colon membranes (Example 2); settings: for Ki: read-out: Ki on [125I]-ICYP specific binding to rat colon membranes; for Displacement of [125I]-ICYP specific binding (in words): competition binding, no concentration stated
T1 construct: Membranes from colon smooth muscles were prepared as essentially described by Ek et al., 1986; from tissue
T1 sequence (A0A8I6A822 27-587): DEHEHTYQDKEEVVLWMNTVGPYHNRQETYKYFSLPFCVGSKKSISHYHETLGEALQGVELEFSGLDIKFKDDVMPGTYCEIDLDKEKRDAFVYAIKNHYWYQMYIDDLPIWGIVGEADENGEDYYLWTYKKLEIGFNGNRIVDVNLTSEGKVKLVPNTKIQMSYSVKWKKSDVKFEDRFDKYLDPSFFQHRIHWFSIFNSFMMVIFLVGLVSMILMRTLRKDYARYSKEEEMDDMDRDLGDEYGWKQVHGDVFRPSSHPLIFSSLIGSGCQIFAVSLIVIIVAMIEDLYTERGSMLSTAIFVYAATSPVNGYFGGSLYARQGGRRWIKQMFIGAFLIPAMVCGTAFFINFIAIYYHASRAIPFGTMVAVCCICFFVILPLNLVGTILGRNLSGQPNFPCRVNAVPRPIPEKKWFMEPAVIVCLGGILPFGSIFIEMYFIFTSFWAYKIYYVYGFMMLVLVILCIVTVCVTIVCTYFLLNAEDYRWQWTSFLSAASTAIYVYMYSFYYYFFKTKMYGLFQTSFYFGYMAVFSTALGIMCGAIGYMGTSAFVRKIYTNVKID
Method: Incubations were carried out at 37° C. for 30 min in a shaking water-bath incubator and terminated by addition of 4 ml of ice-cold Tris-saline followed by rapid filtration under vacuum on Whatman GF/B filter presoaked in Tris-saline containing 0.1% polyethyleneimine (pH 7.4). The filters were washed three times with 4 ml of ice-cold Tris-saline, transferred to plastic tubes and counted in a γ-counter.
Hill coefficient was calculated by linear regression using saturation experiment data. Pseudo-Hill coefficient and IC50 were determined by the computer program, InPlot™ (GraphPad Software, CA, USA).

[3] = target: T2, SMBP in rat colon smooth muscle membranes (Rattus norvegicus, UniProt A0A8I6A822); experiment: [125I]-ICYP saturation binding to rat colon membranes (Example 1); settings: means ± SD
T2 construct: Membranes from colon smooth muscles were prepared as essentially described by Ek et al., 1986; from tissue
T2 sequence (A0A8I6A822 27-587): as above
Method: Frozen rat colons (SD strains, male and female) were purchased from Pel-Freeze Biologicals (Arkansas, USA). Membranes from colon smooth muscles were prepared as essentially described by Ek et al., 1986, with the slight following modifications. The colon segment was washed in ice-cold Tris-saline (10 mM Tris/HCl, 154 mM NaCl, (pH 7.4)), cut open longitudinally and the mucosa was removed by scrubbing with a glass slide on ice-cold plastic plate. The smooth muscle preparations were homogenized with a Polytron homogenizer for 1 min. The homogenate was filtered through a gauze and centrifuged (1,500×g for 20 min at 4° C.), the supernatant was collected and centrifuged (50,000×g for 20 min at 4° C.). The pellet comprising the membranes was resuspended in Tris-saline and was stored at −80° C. until use. The protein concentration was determined by Bio-Rad protein assay kit (Bio-Rad USA).
Saturation binding studies were performed in a final volume of 200 μl of Tris-saline containing 50 μg membrane proteins and different concentrations (0.05-25 nM) of [^125I]-ICYP, in the presence of 10 μM serotonine (5-HT), 10 μM phentolamine, 20 μM (±) propranolol and 1.1 mM ascorbic-acid pH 7.4), to block possible 5-HT receptors, ARs and oxidation of catecholamines, respectively. […] The filters were washed three times with 4 ml of ice-cold Tris-saline, transferred to plastic tubes and counted in a γ-counter.

[4] = tested on: rat colon smooth muscle segment; experiment: Relaxation of KCl-induced tonus in rat colon segment (organ bath); settings: for IA, rat colon relaxation: relative to isoproterenol; for EC50: Rattus norvegicus, read-out: pD2, rat colon relaxation (converted)
Method: Rat colon segment (2 cm) was suspended in organ bath containing 10 ml modified-Tyrode solution (Sugasawa T. et al. Eur. J. Pharmacol., 1992, 216, 207-215). The Tyrode solution contained 0.5 μM atropine, 0.5 μM desmethylimipramine, 30 μM hydrocortisone, 30 μM ascorbic acid, 10 μM phentolamine and 1 μM propranolol throughout study, in order to inhibit spontaneous contraction, neuronal and extra-neuronal uptake of norepinephrine, oxidation of catecholamines, possible α, β1- and β2-AR effects, respectively.
The relaxant action of agonists was determined by measuring relaxation of KCl (100 mM)-induced tonus evoked by cumulative addition of the agonists as described previously (Sugasawa T. et al. cited above). In the case of testing the effect of cyanopindolol, it was added 5-10 min before the addition of agonist.
(§1) Agonist concentration-ratios (CR) were determined from the EC50 values of the concentration-response curves of agonists with or without cyanopindolol, according to the method of Arunlakshana et al., 1959.
(§2) The EC50 values were calculated using the computer program, InPlot™.

[5] = tested on: rat white adipocytes; experiment: Lipolysis in rat white adipocytes; assay type: cell-based; settings: for IA, rat white adipocyte lipolysis: relative to isoproterenol; for EC50: Rattus norvegicus, Adipocyte, read-out: pD2, rat white adipocyte lipolysis (converted)
Method: White adipocytes were isolated from epididymal fat pads of male Wistar rats (190-230 g) and lipolysis was determined according to the previous report (Sugasawa T. et al. cited above). The cells were preincubated for 5 min at 37° C. in the presence of 30 μM ascorbic acid, 10 μM phentolamine and 1 μM propranolol.
Agonists were then applied and incubated for 90 min. In the case of testing the effect of cyanopindolol, it was added 5 min before the addition of agonist.
as §1, §2

[6] = target: T3, 34 kDa photoaffinity-labeled protein (SMBP) in rat colon membranes (Rattus norvegicus, UniProt A0A8I6A822); experiment: Photoaffinity labeling of rat colon membranes with [125I]-ICYP-diazirine; assay type: binding
T3 construct: Membranes from colon smooth muscles were prepared as essentially described by Ek et al., 1986; from tissue
T3 sequence (A0A8I6A822 27-587): as above
Method: Incubations were carried out in the presence or absence of competitor at 37° C. for 45 min in the dark in a shaking water-bath incubator and terminated by addition of 10 ml of ice-cold Tris-saline followed by a rapid centrifugation (150,000×g for 10 min at 4° C.). The membranes were irradiated with a UV lamp for 5 min with cooling by circulating water. The labeled membranes were diluted with 10 ml of ice-cold Tris-saline, centrifuged (150,000×g for 30 min at 4° C.), and the pellet was resuspended in Tris-saline and kept at −80° C.
SDS-PAGE was performed under reducing conditions essentially as described by Laemmli, 1970, using 12% polyacrylamide gels (40% T, 2.6% C). […] After electrophoresis, the gels were dried and autoradiographed on X-OMAT™ AR film (Eastman Kodak Co., NY, USA), as specified in example 1, chapter <<(preparative SDS-PAGE>>.

[7] = 1 nM [125I]-ICYP, 10 μM 5-HT, 10 μM phentolamine and 20 μM propranolol
[8] = up to the concentration of 1 mM
[9] = 10 μM phentolamine and 1 μM propranolol, mean ± SEM

C=CCc1ccccc1OCC(O)CNC(C)C (racemic) [(±)-alprenolol, alprenolol]
Effect of antagonist on the inhibition of eosinophil chemotaxis [1]: antagonized | Pseudo-Hill coefficient [2, 7]: 0.85 ± 0.24 | Ki [2, 7]: 13.3 ± 2.4 µM

Cc1ccc(Cl)c(OCC(O)CNC(C)(C)C)c1 (racemic) [(±)-bupranolol, bupranolol]
Pseudo-Hill coefficient [2, 7]: 1.08 ± 0.08 | Ki [2, 7]: 11.3 ± 0.8 µM

CC(C)NCC(O)COc1cccc2[nH]c3ccccc3c12 (racemic) [(±)-carazolol, carazolol]
Pseudo-Hill coefficient [2, 7]: 0.77 ± 0.11 | Ki [2, 7]: 8.1 ± 1.7 µM | Displacement of [125I]-ICYP specific binding (in words) [2]: less effective

COC(=O)COc1ccc(OCCNCC(O)COc2ccccc2)cc1 (racemic) [ICI-198157, (RS)-4-[2-[(2-hydroxy-3-phenoxypropyl)amino]ethoxy]phenoxyacetic acid methyl ester]
Pseudo-Hill coefficient [2, 7]: 0.96 ± 0.23 | Ki [2, 7]: 29.4 ± 8.9 µM | Displacement of [125I]-ICYP specific binding (in words) [2]: displaced the specific binding

O=C([C@@H](NCCCc1ccc(F)cc1)[C@@H](O)c1ccc(O)c(O)c1)N1CCCC1 (racemic) [SM-14010]
Pseudo-Hill coefficient [2, 7]: 0.67 ± 0.13 | Ki [2, 7]: 29.3 µM

O=C([C@@H](NCCCc1ccc(F)cc1)[C@H](O)c1ccc(O)c(O)c1)N1CCCC1 (racemic) [SM-14011]
Pseudo-Hill coefficient [2, 7]: 1.07 ± 0.15 | Ki [2, 7]: 2 µM | Effectiveness in competition binding relative to SM-14010 ([2]; ratio of Ki, SM-14011 vs SM-14010): 15 times

CCOC(=O)COc1ccc2c(c1)C[C@@H](NC[C@H](O)c1cccc(Cl)c1)CC2 (racemic) [SR-58611A, (RS)-N-(7 carbethoxymethoxyl-1,2,3,4-tetrahydronaphth-2-yl)-2-hydroxy-2-(3 chlorophenyl) ethanamine hydro-chloride]
Pseudo-Hill coefficient [2, 7]: 1.21 ± 0.21 | Ki [2, 7]: 5.9 ± 1 µM

CC(C)(C)NCC(O)COc1cccc2[nH]c(C#N)c(I)c12 (single isomer, unassigned; (-)) [[^125I]-ICYP, (−)-3-[^125I] iodocyanopindolol]
Kd ([2]; Example 2 membranes (Wistar rats), 10 μM 5-HT, 10 μM phentolamine and 20 μM propranolol, read-out: Dissociation constant (Kd), Scatchard plot): 0.011 ± 0.00095 µM | Kd ([3]; Example 1 membranes (SD rats), blockade of adrenergic and serotonine receptors, read-out: Dissociation constant (Kd), Scatchard plot): 0.00722 ± 7e-06 µM

CC(C)(C)NCC(O)COc1cccc2[nH]c(C#N)c([125I])c12 (single isomer, unassigned; (-)) [[^125I]-ICYP, (−)-3-[^125I] iodocyanopindolol]
Specific binding at equilibrium levels ([2]; 1 nM [125I]-ICYP, 30 min, n=2): 82.7±1.9% | Maximum number of binding sites (Bmax) ([2]; Example 2 membranes, 10 μM 5-HT, 10 μM phentolamine and 20 μM propranolol): 716.7±21.12 fmol/mg protein | Hill coefficient of the saturation curve ([2]; saturation experiment, 30 min incubation): 0.99±0.03 | Maximum number of binding sites (Bmax) ([3]; Example 1 membranes): 1.13 ±0.071 pmol/mg membrane protein

NCCc1c[nH]c2ccc(O)cc12 [5-HT, serotonine]
Ki [2, 7]: > 1000 µM | Displacement of [125I]-ICYP specific binding [2, 8]: not displaced

CNC[C@H](O)c1ccc(O)c(O)c1 [(−)-epinephrine, epinephrine]
IA, rat colon relaxation [4, 9]: 0.86 ± 0.137 | EC50 [4]: 1.2 µM | Ki [2, 7]: > 1000 µM | Displacement of [125I]-ICYP specific binding [2, 8]: not displaced | IA, rat white adipocyte lipolysis [5, 9]: 0.91 ± 0.036 | EC50 [5]: 6.92 µM

NC[C@H](O)c1ccc(O)c(O)c1 [(−)-norepinephrine, norepinephrine]
IA, rat colon relaxation [4, 9]: 0.85 ± 0.168 | EC50 [4]: 1.41 µM | Ki [2, 7]: > 1000 µM | Displacement of [125I]-ICYP specific binding [2, 8]: not displaced | IA, rat white adipocyte lipolysis [5, 9]: 1.02 ± 0.058 | EC50 [5]: 3.98 µM

COC(=O)COc1ccc(CC(C)NCC(O)c2cccc(Cl)c2)cc1 (stereo not drawn) [BRL-35135A, (R*R*)-(+)-4-[2′-[2-hydroxy 2-(3-chlorophenyl)ethylamino]propyl]phenoxyacetic acid methyl ester]
Inhibition of leukotriene B4 induced guinea pig eosinophil chemotaxis [1]: inhibiting | Pseudo-Hill coefficient [2, 7]: 0.80 ± 0.14 | Ki [2, 7]: 1.4 ± 0.1 µM | Displacement of [125I]-ICYP specific binding (in words) [2]: displaced the specific binding

CC(Cc1ccc(OCC(=O)O)cc1)NCC(O)c1cccc(Cl)c1 (stereo not drawn) [BRL-37344]
Inhibition of leukotriene B4 induced guinea pig eosinophil chemotaxis [1]: no such effect | IA, rat colon relaxation [4, 9]: 1.00 ± 0.126 | EC50 ([4]; relaxation of KCl (100 mM)-induced tonus, 10 μM phentolamine and 1 μM propranolol, mean ± SEM): 0.0316 µM | Ki [2, 7]: > 100 µM | Displacement of [125I]-ICYP specific binding ([2]; up to the concentration of 100 μM): did not displace | IA, rat white adipocyte lipolysis [5, 9]: 0.72 ± 0.0333 | EC50 [5, 9]: 0.0562 µM | Displacement of the photoaffinity-labeled 34 kDa band ([6]; competitor 100 μM, 1.5 nM [125I]-ICYP-diazirine, 10 μM 5-HT, 10 μM phentolamine, 20 μM propranolol): not displaced

CC(C)(C)NCC(O)COc1cccc2[nH]c(=O)[nH]c12 (stereo not drawn) [CGP-12177A]
Ki [2, 7]: > 100 µM

NCCc1ccc(O)c(O)c1 [Dopamine, dopamine]
Ki [2, 7]: > 1000 µM | Displacement of [125I]-ICYP specific binding [2, 8]: not displaced

Nc1nc2c(ncn2[C@@H]2O[C@H](COP(=O)(O)OP(=O)(O)OP(=O)(O)O)[C@@H](O)[C@H]2O)c(=O)[nH]1 [GTP]
Inhibition of [125I]-ICYP specific binding ([2]; at 300 μM, n=2): 29.8±2.7% | Inhibition of [125I]-ICYP specific binding ([2]; at 1 mM, n=2): 98.2 ± 1.3%

Cc1ccc(OCC(O)C(C)NC(C)C)c2c1CCC2 (stereo not drawn) [ICI-118551]
Pseudo-Hill coefficient [2, 7]: 0.89 ± 0.14 | Ki [2, 7]: 28.5 µM

O=C(O)COc1ccc(OCCNCC(O)COc2ccccc2)cc1 (stereo not drawn) [ICI-201651]
Ki [2, 7]: > 100 µM

O=C(O)COc1ccc(OCCNC[C@H](O)COc2ccccc2)cc1 [ICI-215001]
Ki [2, 7]: > 100 µM

O=C([C@H](NCCCc1ccc(F)cc1)[C@@H](O)c1ccc(O)c(O)c1)N1CCCC1 [SM-14786]
Pseudo-Hill coefficient [2, 7]: 0.92 ± 0.15 | Ki [2, 7]: 3.7 ± 0.4 µM

CC(C)NCC(O)COc1cccc2ccccc12 (stereo not drawn) [propranolol]
Effect of antagonist on the inhibition of eosinophil chemotaxis [1]: unaffected | Effect on photoaffinity-labeled bands ([6]; competitor 20 μM, 10 μM 5-HT and 10 μM phentolamine): only the 34 kDa band remained visible
